Read-outs that look alike come from different tables or passages of the source.
Columns and labels:
human Nav1.7 = human Nav1.7 (Homo sapiens (Human), UniProt Q15858); assay: FLIPR sodium dye assay for sodium channel blocking activity (recombinant Nav1.7/HEK293 cells); format: cell-based
[1] = tested on: SNL-induced mechanical hyperalgesia; assay: SNL-induced mechanical hyperalgesia model (paw pressure test, PWT); format: in vivo, rat; conditions: dosed orally at 100 mg/kg, vehicle 0.5% methyl cellulose, one hour before testing
Procedure: In the Chung model, the spinal nerve ligation (SNL) model of neuropathic pain is used to produce mechanical hyperalgesia, thermal hyperalgesia, and tactile allodynia in rats. Surgery is performed under isoflurane/O2 inhalation anesthesia. Following induction of anesthesia a 3 cm incision is made and the left paraspinal muscles are separated from the spinous process at the L4-S2 levels. The L6 transverse process is carefully removed with a pair of small rongeurs to identify visually the L4-L6 spinal nerves. The left L5 (or L5 and L6) spinal nerve(s) is (are) isolated and tightly ligated with silk thread. […] The animals can also be assessed for response to noxious thermal stimuli or for tactile allodynia, as described below. […] Sensitivity to noxious mechanical stimuli was measured in animals using the paw pressure test to assess mechanical hyperalgesia. In rats, hind paw withdrawal thresholds (“PWT”), measured in grams, in response to a noxious mechanical stimulus were determined using an analgesymeter (Model 7200, commercially available from Ugo Basile of Italy), as described in Stein (Biochemistry & Behavior 31: 451-455 (1988)). […] PWT was determined once for each rat at each time point. PWT can be measured only in the injured paw, or in both the injured and non-injured paw. […]

[2] = recombinant human Nav1.7 in HEK293

human Nav1.7, sequence (Q15858 other isoform, or with tags, fused parts or gaps): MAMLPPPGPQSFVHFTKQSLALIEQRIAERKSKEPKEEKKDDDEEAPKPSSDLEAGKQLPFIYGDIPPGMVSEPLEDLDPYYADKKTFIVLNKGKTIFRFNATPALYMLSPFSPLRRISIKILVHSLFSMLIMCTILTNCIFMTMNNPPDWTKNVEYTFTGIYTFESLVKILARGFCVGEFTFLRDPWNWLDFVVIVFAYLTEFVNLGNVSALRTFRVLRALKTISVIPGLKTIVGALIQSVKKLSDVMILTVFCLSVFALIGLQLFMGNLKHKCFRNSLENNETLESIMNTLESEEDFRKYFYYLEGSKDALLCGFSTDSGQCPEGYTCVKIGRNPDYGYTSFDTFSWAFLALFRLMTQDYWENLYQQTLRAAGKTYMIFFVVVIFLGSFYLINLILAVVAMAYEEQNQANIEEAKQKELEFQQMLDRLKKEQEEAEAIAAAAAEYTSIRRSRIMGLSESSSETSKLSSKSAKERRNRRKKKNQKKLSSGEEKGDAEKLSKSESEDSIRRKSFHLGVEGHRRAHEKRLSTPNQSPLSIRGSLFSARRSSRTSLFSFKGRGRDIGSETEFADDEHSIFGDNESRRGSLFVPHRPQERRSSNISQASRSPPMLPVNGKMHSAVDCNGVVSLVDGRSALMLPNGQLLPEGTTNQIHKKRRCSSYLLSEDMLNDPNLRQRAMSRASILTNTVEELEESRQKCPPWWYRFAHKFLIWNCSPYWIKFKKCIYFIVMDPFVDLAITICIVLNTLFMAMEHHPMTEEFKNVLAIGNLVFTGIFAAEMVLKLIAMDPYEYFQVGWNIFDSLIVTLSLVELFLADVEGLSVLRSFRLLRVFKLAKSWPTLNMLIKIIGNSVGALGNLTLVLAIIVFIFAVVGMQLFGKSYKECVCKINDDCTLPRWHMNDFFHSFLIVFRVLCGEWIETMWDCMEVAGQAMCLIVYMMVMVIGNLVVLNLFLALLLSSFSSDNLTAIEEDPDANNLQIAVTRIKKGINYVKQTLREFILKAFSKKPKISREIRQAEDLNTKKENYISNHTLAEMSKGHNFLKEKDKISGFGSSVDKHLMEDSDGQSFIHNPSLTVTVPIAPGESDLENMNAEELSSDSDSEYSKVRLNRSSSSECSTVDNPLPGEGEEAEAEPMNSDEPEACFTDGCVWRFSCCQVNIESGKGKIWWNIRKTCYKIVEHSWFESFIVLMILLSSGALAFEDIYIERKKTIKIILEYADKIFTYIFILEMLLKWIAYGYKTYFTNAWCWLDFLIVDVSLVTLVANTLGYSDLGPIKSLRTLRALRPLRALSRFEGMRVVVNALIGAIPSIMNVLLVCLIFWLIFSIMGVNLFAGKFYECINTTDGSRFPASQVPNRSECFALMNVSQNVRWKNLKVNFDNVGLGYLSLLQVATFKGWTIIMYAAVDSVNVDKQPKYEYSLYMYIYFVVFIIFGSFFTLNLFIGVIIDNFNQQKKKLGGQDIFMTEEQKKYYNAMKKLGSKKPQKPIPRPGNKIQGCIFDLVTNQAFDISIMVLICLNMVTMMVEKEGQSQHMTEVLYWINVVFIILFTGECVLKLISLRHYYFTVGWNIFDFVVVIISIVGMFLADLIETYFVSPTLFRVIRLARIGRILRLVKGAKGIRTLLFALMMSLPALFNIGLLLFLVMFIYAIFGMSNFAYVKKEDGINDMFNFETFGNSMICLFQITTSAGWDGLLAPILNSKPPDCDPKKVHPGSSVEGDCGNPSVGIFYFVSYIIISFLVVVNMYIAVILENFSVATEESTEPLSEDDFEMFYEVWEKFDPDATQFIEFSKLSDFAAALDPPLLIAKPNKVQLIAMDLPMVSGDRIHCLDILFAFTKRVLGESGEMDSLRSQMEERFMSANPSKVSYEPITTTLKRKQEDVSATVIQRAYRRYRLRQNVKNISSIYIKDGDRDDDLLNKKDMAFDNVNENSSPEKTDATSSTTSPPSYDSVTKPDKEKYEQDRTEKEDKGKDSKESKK

Structure (SMILES)	IC50 (human Nav1.7; [2]) [µM]	SNL-induced mechanical hyperalgesia in rats [1]	other results
C[C@H](Oc1cc(C(N)=O)nc(-c2ccc(Oc3cc(Cl)ccc3F)cc2)n1)C(N)=O [Cpd No. 92]	0.27		
C[C@H](Oc1cc(C(N)=O)nc(-c2ccc(Oc3ccc(Cl)cc3F)cc2)n1)C(N)=O [Cpd No. 93]	0.083		
C[C@H](Nc1cc(C(N)=O)nc(-c2ccc(Oc3cc(C(F)(F)F)ccn3)cc2)n1)C(N)=O [compound 57]	3.25		
C[C@H](Nc1cc(C(N)=O)nc(-c2ccc(Oc3ccc(OC(F)(F)F)cc3)cc2)n1)C(N)=O [compound 84, (S)-6-((1-amino-1-oxopropan-2-yl)amino)-2-(4-(4-(trifluoromethoxy)phenoxy)phenyl)pyrimidine-4-carboxamide]		reduced SNL-induced mechanical hyperalgesia	
C[C@H](Nc1cc(C(N)=O)nc(-c2ccc(Oc3ccc(F)cc3)c(CO)c2)n1)C(N)=O [compound 97, (S)-6-((1-amino-1-oxopropan-2-yl)amino)-2-(4-(4-fluorophenoxy)-3-(hydroxymethyl)phenyl)pyrimidine-4-carboxamide]			IC50 (human Nav1.7): 5.72 µM
NC(=O)c1cc(N[C@H]2CCNC2=O)nc(-c2ccc(Oc3ccc(C(F)(F)F)cn3)cc2)n1 [compound 99, (S)-6-((2-oxopyrrolidin-3-yl)amino)-2-(4-((5-(trifluoromethyl)pyridin-2-yl)oxy)phenyl)pyrimidine-4-carboxamide]		reduced SNL-induced mechanical hyperalgesia	
